Key:
[1] = molecular target: T1, SHP2 (Homo sapiens, UniProt Q06124); assay: PTPase assay, GST-fusion PTP domain of SHP2, DiFMUP substrate; format: biochemical
T1 construct: the GST fusion of the PTP domains of SHP2, SHP1, and PTP1B were produced and purified as reported by us previously; GST; made in house
T1 sequence (Q06124 247-517 limits assumed): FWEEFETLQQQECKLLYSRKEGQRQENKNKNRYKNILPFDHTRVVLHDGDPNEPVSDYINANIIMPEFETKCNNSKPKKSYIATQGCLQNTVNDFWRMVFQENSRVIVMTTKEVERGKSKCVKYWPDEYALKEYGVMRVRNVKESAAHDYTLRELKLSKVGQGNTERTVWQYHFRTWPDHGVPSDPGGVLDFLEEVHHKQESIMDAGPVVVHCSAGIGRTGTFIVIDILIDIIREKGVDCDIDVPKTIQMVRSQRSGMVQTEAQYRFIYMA
Protocol: After completion of synthesis, both CNBCA and CNBBA were purified on silica gel, and purity was determined by HPLC. The purified compounds were then tested for their effect on the SHP2 enzyme activity and on the activity of the selected control PTPs (SHP1 and PTP1B) by the phosphotyrosyl phosphatase (PTPase) assay as described previously.[30],[31] First, the GST fusion of the PTP domains of SHP2, SHP1, and PTP1B were produced and purified as reported by us previously.[32] The reactions were performed in a buffer containing 10 mM Tris-HCl (pH 7.2), 100 mM NaCl, 1 mM EDTA, 1 mM dithiothreitol (DTT), and 0.01% Tween-20. Briefly, CNBCA or CNBBA was added first in a serial dilution ranging from 100 μM to 97 nM followed by the enzymes (SHP2, SHP1, or PTP1B) to a final concentration of 1 nM. After 5 min of incubation at room temperature, the reactions were started by adding the artificial substrate DiFMUP (6,8-difluoro-4-methylumbelliferyl phosphate) to a final concentration of 20 μM for SHP2, 35 μM for SHP1, and 10 μM for PTP1B in a reaction volume of 100 μL; variations in DiFMUP concentrations reflect the reported Km values for the respective PTPs.[33] The complete mixture was incubated at 37 °C for 20 min, and fluorescence intensity was measured by the Synergy 4 plate reader at the excitation and emission wavelengths of 360 and 460 nm, respectively. The half inhibitory concentration (IC50) value of each compound was calculated and plotted using Graphpad Prism software.
We used the PTPase assay described previously[30],[31] to evaluate the effect of the newly synthesized compounds on the enzymatic activity of SHP2, SHP1, and PTP1B. The PTP domains of the indicated proteins were prepared as reported by us recently.[32] The artificial PTP substrate DiFMUP (6,8-Difluoro-4-Methylumbelliferyl Phosphate) was purchased from Invitrogen. The purified proteins were dialyzed into a phosphatase buffer containing 10 mM Tris-HCl ([…]), 100 mM NaCl, 1.0 mM EDTA, 1.0 mM dithiothreitol (DTT), and 0.01% Tween-20. Briefly, the PTPase reactions were performed in 100 μL volume containing 1 nM enzyme, inhibitors in serial dilutions (12 nM to 100 μM), and DiFMUP to a final concentration of 20 μM for SHP2, 35 μM for SHP1, and 10 μM for PTP1B. Differences in DiFMUP concentrations reflect the reported Km values for each PTP.[37] The mixtures were incubated at 37 °C for 20 min and transferred to 96 well plates, and the fluorescence intensity was measured by a Synergy 4 plate reader at the excitation and emission wavelengths of 360 and 460 nm, respectively. Graphpad Prism software was used to calculate the IC50 values.

[2] = molecular target: T1, SHP2; assay: Enzyme kinetic study (Michaelis-Menten, Lineweaver-Burk) with DiFMUP; format: biochemical; settings: Km increased without change in Vmax
Protocol: As such, its mechanism of inhibition is expected to be through competitive binding to the active site. To verify this point, we conducted enzyme kinetic studies using the artificial substrate DiFMUP in the presence and absence of CNBCA. Briefly, 400 μM DiFMUP in the PTPase buffer was added to the 12th well in the 96-well plate and then serially diluted to as low as 3.12 μM in the successive wells. After adding the enzyme to a final concentration of 1.0 nM in a total volume of 100 μL, the fluorescence of the enzyme reaction rate was measured for a total of 3 min at 10 s interval in the Synergy 4 plate reader at the excitation and emission wavelengths of 360 and 460 nm, respectively. The data was transformed into relative fluorescence unit (RFU) per second and plotted using the Graphpad software to produce the Michaelis–Menten and the Lineweaver–Burk plots.
In these reactions, the enzyme was added last, and the fluorescence was read for 3 min at 10 s interval. Changes in fluorescence intensity were used to calculate the Km of the SHP2 enzyme for DiFMUP in the presence and absence of CNBCA. The Graphpad Prism was used to prepare the Michaelis–Menten and Lineweaver–Burk plots and to determine the Km values.

[3] = system: BT474 cells; assay: Mammosphere formation in suspension culture, BT474; format: cell-based; settings: BT474, 500 nM, 10 days, versus vehicle
Protocol: Since SHP2 is essential for the growth and transformation of BC cells,[8],[9],[11] we determined the effect of SHP2 inhibition with CNBCA in 2D and 3D culture systems. For the effect on cell growth, BC cells (BT474 and MDA-MB468) were seeded in 2D culture and treated with a single concentration of CNBCA (500 nM), the concentration that provided a 50% inhibition of SHP2 mediated signaling in BT474 cells. Images were collected at the start and every 24 h for a total of 72 h (3 days). […] For effect on anchorage independent growth, approximately 10^6 cells were seeded in soft agar as described previously,[24] and treated with CNBCA at 500 nM concentration for 10 days with refeeding and adjustment of compound concentration. […] Finally, the effect of CNBCA on cancer stem cell properties was determined by the suspension assay, in which only cells with stem-like properties only can grow and form mammospheres.[7],[24],[36] Approximately 10^6 cells were seeded in nonadherent 6 cm plates and treated with CNBCA (500 nM) for 10 days with complementation of media and drug concentration.
To further evaluate the anti-breast cancer cell effect of CNBCA, we treated cells seeded in a suspension culture known as the mammosphere assay. In this assay, cells with cancer stem cell properties can grow and form sphere-like cellular aggregates known as mammospheres.[7],[38] […]

CCCCCCCCCOc1ccc(-c2ccc(C(=O)O)cc2)cc1CCCC(=O)O [CNBCA, 3′-(3-carboxypropyl)-4′-(nonyloxy)-[1,1′-biphenyl]-4-carboxylic acid]
IC50 ([1]; PTP domain, 1 nM enzyme, 20 μM DiFMUP, 37 °C 20 min): 870 nM
selectivity ratio SHP2 (reference) ([1]; SHP2 IC50 as reference): 1.0
fold difference ([1]; SHP2 IC50 relative to CNBCA): 1.0 fold
mechanism of inhibition [2]: competitive inhibitor
mammosphere formation [3]: fewer and smaller mammospheres
